Measured values taken from PMC10910532, “Structure of the GDP-bound state of the SRP GTPase FlhF” (Acta Crystallographica. Section F, Structural Biology …, 2024).

Molecular target: T1, NG-FlhF (Shewanella putrefaciens, UniProt A4Y8J9)
T1 construct: gene Sputcn32_2561; NG domain, residues 174-460, C-terminal His6 tag, recombinant from E. coli BL21(DE3), monomer; residues 183-437 modelled
T1 sequence (A4Y8J9 174-460): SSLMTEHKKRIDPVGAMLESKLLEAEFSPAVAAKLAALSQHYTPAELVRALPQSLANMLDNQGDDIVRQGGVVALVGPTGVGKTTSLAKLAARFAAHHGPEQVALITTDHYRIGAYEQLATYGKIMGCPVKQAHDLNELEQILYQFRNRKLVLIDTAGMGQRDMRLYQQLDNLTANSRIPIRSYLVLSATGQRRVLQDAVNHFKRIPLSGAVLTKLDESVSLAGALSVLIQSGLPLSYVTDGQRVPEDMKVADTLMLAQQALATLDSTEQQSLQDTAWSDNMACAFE
Experiment: X-ray crystal structure
Format: binding
Conditions: 5 mM GDP pre-incubated with protein; crystallised at pH 5.0, 20 °C; nucleotide site, no Mg2+ in active site

Compound: Nc1nc2c(ncn2[C@@H]2O[C@H](COP(=O)(O)OP(=O)(O)O)[C@@H](O)[C@H]2O)c(=O)[nH]1 [GDP]
- X-ray crystal structure: Density which could unambiguously be assigned to GDP was found in the active center
